{
  "source": "patent US20240216406A1",
  "about": "“METHODS AND COMPOSITIONS FOR SUPPORTING HUMAN HEALTH DURING SPACE TRAVEL” (Intrinsic Medicine, Inc., priority 2021, published 2024)",
  "origin": "cited, not measured here",
  "key": {"local gut inflammation": {"test_system": "local gut inflammation", "conditions": "models of necrotizing enterocolitis and other inflammatory bowel diseases"}, "E. Coli": {"test_system": "E. Coli", "conditions": "in the presence of the HMO"}, "[1]": {"test_system": "mouse models of rheumatoid arthritis", "conditions": "administered orally; mouse rheumatoid arthritis models with LPS challenge"}, "[2]": {"test_system": "murine and human derived macrophages", "conditions": "in vitro"}, "[3]": {"test_system": "PDL1, COX2, CCL2 (MCP1), CCL5"}, "p65": {"test_system": "p65", "conditions": "murine rheumatoid arthritis model"}},
  "note": "Where two headings read alike, the source gives them in different places.",
  "data": [
    {"compound": "CC1O[C@@H](OC2[C@H](O[C@@H]3C(CO)OC(O)C(O)C3O)OC(CO)[C@H](O)[C@@H]2O)C(O)[C@@H](O)[C@@H]1O", "note": "(some centres unmarked) [2′FL, 2′-fucosyllactose]", "values": [
      {"measurement": "gut epithelial barrier function", "setting": "gut epithelial barrier", "result": "positive effects on gut epithelial barrier function"},
      {"measurement": "TNFα and IL-8", "setting": "TNFα and IL-8", "result": "reduction in TNFα and IL-8"},
      {"measurement": "local gut inflammation", "setting": "local gut inflammation", "result": "reduction of local gut inflammation"},
      {"measurement": "E. Coli adhesion to Caco-2 cells", "setting": "E. Coli", "result": "reduction of E. Coli adhesion"}
    ]},
    {"compound": "sialyllactose", "values": [
      {"measurement": "clinical assessments of disease", "setting": "[1]", "result": "benefit in clinical assessments of disease"}
    ]},
    {"compound": "CC(=O)N[C@H]1C([C@H](O)[C@H](O)CO)O[C@@](O[C@@H]2C(O)[C@H](O[C@@H]3C(CO)O[C@@H](O)C(O)[C@H]3O)OC(CO)[C@@H]2O)(C(=O)O)C[C@H]1O", "note": "(some centres unmarked) [3′SL, 3′-sialyllactose]", "values": [
      {"measurement": "IL-1β, IL-2, IL-4, IL-6, IL-12, IFN γ or TNF-α", "setting": "[2]", "result": "reductions"},
      {"measurement": "IL-1β, IL-2, IL-4, IL-6, IL-12, IFN γ or TNF-α", "setting": "[2]; listed as 3′-SL", "result": "more significant reductions"},
      {"measurement": "PDL1, COX2 and select chemokines such as CCL2 (MCP1) and CCL5", "setting": "[3]", "result": "reduce other key target proteins"},
      {"measurement": "phosphorylation of p65 (NF-kB signaling pathway)", "setting": "p65", "result": "inhibited phosphorylation of p65"}
    ]},
    {"compound": "CC(=O)N[C@H]1C([C@H](O)[C@H](O)CO)O[C@@](OCC2O[C@@H](O[C@@H]3C(CO)O[C@@H](O)C(O)[C@H]3O)C(O)[C@@H](O)[C@H]2O)(C(=O)O)C[C@H]1O", "note": "(some centres unmarked) [6′SL, 6′-sialyllactose]", "values": [
      {"measurement": "IL-1β, IL-2, IL-4, IL-6, IL-12, IFN γ or TNF-α", "setting": "[2]", "result": "reductions"},
      {"measurement": "E. Coli adhesion to Caco-2 cells", "setting": "E. Coli", "result": "reduction of E. Coli adhesion"}
    ]}
  ]
}
